# Measured values taken from US10259810B2, “N-sulfonylated pyrazolo[3,4-b]pyridin-6-carboxamides and method of use” (AbbVie S.à.r.l., priority 2015, dated 2019).
# What was measured:
# ΔF508-CFTR [1] = biological target: T1, ΔF508-CFTR (Homo sapiens, UniProt P13569, DEL508-508); experiment: CFTR cell surface levels using HRP-tagged ΔF508-CFTR expressing CFBE cells, in the presence of a co-corrector; format: cell-based
# T1 construct: host or cells: CFBE41o-, doxycycline-inducible
# Procedure, shortened: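 Chemiluminescent read-out of surface HRP (15 min, dark) after PBS washes. Activity is normalized as 100×(sample−DMSO)/(3 μM co-corrector alone−DMSO).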
# ΔF508-CFTR [2] = biological target: T1, ΔF508-CFTR; experiment: CFTR cell surface levels using HRP-tagged ΔF508-CFTR expressing CFBE cells, intrinsic corrector capacity; format: cell-based; parameters: % Activation: concentration or dose not given beside the values
# Procedure, shortened: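 Surface ΔF508-CFTR was measured as HRP chemiluminescence from an extracellular-loop-4 tag, expressed as percent activity between DMSO and a […] corrector control.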
# [3] = HRP-tagged ΔF508-CFTR CFBE cells, in the presence of 3 μM co-corrector
# [4] = HRP-tagged ΔF508-CFTR CFBE cells, in the presence of 3 μM co-corrector, read-out: EC50
# [5] = HRP-tagged ΔF508-CFTR expressing CFBE41o- cells, compound alone (intrinsic corrector capacity), 20 hours at 33° C.
# [6] = HRP-tagged ΔF508-CFTR expressing CFBE41o- cells, compound alone (intrinsic corrector capacity), 20 hours at 33° C., read-out: EC50
# T1 sequence (P13569 with tags, fused parts or gaps DEL508-508): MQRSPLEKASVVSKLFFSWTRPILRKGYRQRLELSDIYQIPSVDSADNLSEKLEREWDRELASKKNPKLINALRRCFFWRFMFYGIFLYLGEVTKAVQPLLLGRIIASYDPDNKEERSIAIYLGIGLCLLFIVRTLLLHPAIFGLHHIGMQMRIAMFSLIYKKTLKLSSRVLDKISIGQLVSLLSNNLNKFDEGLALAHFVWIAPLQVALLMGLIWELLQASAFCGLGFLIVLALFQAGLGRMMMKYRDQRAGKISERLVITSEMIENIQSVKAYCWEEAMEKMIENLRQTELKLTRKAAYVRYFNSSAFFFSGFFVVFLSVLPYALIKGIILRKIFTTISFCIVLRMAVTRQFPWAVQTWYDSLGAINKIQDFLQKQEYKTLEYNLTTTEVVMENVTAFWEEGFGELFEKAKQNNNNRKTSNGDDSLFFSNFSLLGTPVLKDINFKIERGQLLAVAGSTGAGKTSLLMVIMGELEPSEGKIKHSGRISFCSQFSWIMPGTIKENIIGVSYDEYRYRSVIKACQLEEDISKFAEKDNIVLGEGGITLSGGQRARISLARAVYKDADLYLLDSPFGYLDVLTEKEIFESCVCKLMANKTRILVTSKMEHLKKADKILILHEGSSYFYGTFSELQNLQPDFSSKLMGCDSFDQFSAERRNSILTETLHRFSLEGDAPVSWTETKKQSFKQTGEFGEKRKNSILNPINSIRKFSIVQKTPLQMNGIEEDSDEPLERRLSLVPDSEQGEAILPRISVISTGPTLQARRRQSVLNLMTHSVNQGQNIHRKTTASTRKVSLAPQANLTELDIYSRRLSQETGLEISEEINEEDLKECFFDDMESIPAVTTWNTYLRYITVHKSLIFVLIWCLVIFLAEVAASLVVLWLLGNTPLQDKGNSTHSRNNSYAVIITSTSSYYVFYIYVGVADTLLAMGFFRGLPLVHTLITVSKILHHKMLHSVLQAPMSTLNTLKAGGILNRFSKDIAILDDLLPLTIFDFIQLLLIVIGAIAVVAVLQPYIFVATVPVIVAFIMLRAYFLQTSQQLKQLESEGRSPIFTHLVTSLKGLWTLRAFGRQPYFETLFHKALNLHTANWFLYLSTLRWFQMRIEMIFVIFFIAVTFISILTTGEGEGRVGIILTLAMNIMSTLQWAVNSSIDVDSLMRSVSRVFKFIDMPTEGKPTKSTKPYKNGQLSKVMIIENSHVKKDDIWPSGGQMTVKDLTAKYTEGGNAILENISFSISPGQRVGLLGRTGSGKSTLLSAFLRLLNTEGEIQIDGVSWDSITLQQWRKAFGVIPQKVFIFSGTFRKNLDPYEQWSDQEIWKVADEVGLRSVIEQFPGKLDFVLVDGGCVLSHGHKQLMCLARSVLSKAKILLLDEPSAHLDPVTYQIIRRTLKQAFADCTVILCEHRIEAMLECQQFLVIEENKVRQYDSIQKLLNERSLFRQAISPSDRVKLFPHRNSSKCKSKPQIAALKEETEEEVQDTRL
smiles,measurement,setting,value
"COCCS(=O)(=O)NC(=O)c1cc(N2CCN(CC(F)(F)F)CC2)c2c(C3CCC3)nn(-c3ccccc3)c2n1 [Compound 330, 3-cyclobutyl-N-(2-methoxyethanesulfonyl)-1-phenyl-4-[4-(2,2,2-trifluoroethyl)piperazin-1-yl]-1H-pyrazolo[3,4-b]pyridine-6-carboxamide]",% Activation,ΔF508-CFTR [1]; [3],285.4%
same,EC50,ΔF508-CFTR [1]; [4],124 nM
same,% Activation,ΔF508-CFTR [2]; [5],133.1%
same,EC50,ΔF508-CFTR [2]; [6],213 nM
"CC(C)c1nn(-c2ccnc(N3CCOCC3)c2)c2nc(C(=O)NS(C)(=O)=O)cc(OCC3CCOCC3)c12 [Compound 336, N-(methanesulfonyl)-1-[2-(morpholin-4-yl)pyridin-4-yl]-4-[(oxan-4-yl)methoxy]-3-(propan-2-yl)-1H-pyrazolo[3,4-b]pyridine-6-carboxamide]",% Activation,ΔF508-CFTR [1]; [3],232.42%
same,EC50,ΔF508-CFTR [1]; [4],282 nM
same,% Activation,ΔF508-CFTR [2]; [5],107.2%
same,EC50,ΔF508-CFTR [2]; [6],420 nM
"CC(C)c1nn(-c2ccc(F)cc2)c2nc(C(=O)NS(C)(=O)=O)cc(N3CCNC(C(F)(F)F)C3)c12 (stereo not drawn) [Compound 339, 1-(4-fluorophenyl)-N-(methanesulfonyl)-3-(propan-2-yl)-4-[3-(trifluoromethyl)piperazin-1-yl]-1H-pyrazolo[3,4-b]pyridine-6-carboxamide]",% Activation,ΔF508-CFTR [1]; [3],295.5%
same,EC50,ΔF508-CFTR [1]; [4],402 nM
same,% Activation,ΔF508-CFTR [2]; [5],142.05%
same,EC50,ΔF508-CFTR [2]; [6],1400 nM
"COCCOCC1(F)CCCN(c2cc(C(=O)NS(C)(=O)=O)nc3c2c(C(C)C)nn3-c2ccc(F)cc2)C1 (stereo not drawn) [Compound 346, 4-{3-fluoro-3-[(2-methoxyethoxy)methyl]piperidin-1-yl}-1-(4-fluorophenyl)-N-(methanesulfonyl)-3-(propan-2-yl)-1H-pyrazolo[3,4-b]pyridine-6-carboxamide]",% Activation,ΔF508-CFTR [1]; [3],375.1%
same,EC50,ΔF508-CFTR [1]; [4],253 nM
same,% Activation,ΔF508-CFTR [2]; [5],195.8%
same,EC50,ΔF508-CFTR [2]; [6],308 nM
"O=C(NS(=O)(=O)CCCN1CCOCC1)c1cc(OCC2CCOCC2)c2c(C3CCC3)nn(-c3ccccc3)c2n1 [Compound 347, 3-cyclobutyl-N-[3-(morpholin-4-yl)propane-1-sulfonyl]-4-[(oxan-4-yl)methoxy]-1-phenyl-1H-pyrazolo[3,4-b]pyridine-6-carboxamide]",EC50,ΔF508-CFTR [1],54.3 nM
same,% Activation,ΔF508-CFTR [1]; [3],301.15%
same,EC50,ΔF508-CFTR [2],263 nM
same,% Activation,ΔF508-CFTR [2]; [5],131.4%
"CS(=O)(=O)NC(=O)c1cc(N2CCC[C@@H](CO)C2)c2c(C3CCC3)nn(-c3ccccc3)c2n1 [Compound 349, 3-cyclobutyl-4-[(3R)-3-(hydroxymethyl)piperidin-1-yl]-N-(methanesulfonyl)-1-phenyl-1H-pyrazolo[3,4-b]pyridine-6-carboxamide]",EC50,ΔF508-CFTR [1],424 nM
same,% Activation,ΔF508-CFTR [1]; [3],327.9%
same,EC50,ΔF508-CFTR [2],512 nM
same,% Activation,ΔF508-CFTR [2]; [5],161.7%
"O=C(NS(=O)(=O)CCCN1CCOCC1)c1cc(N2CCC[C@@H](CO)C2)c2c(C3CCC3)nn(-c3ccccc3)c2n1 [Compound 350, 3-cyclobutyl-4-[(3R)-3-(hydroxymethyl)piperidin-1-yl]-N-[3-(morpholin-4-yl)propane-1-sulfonyl]-1-phenyl-1H-pyrazolo[3,4-b]pyridine-6-carboxamide]",EC50,ΔF508-CFTR [1],287 nM
same,% Activation,ΔF508-CFTR [1]; [3],274.6%
same,EC50,ΔF508-CFTR [2],357 nM
same,% Activation,ΔF508-CFTR [2]; [5],104.21%
"O=C(NS(=O)(=O)N1CCC(N2CCCC2)CC1)c1cc(OCC2CCOCC2)c2c(C3CCC3)nn(-c3ccccc3)c2n1 [Compound 351, 3-cyclobutyl-4-[(oxan-4-yl)methoxy]-1-phenyl-N-[4-(pyrrolidin-1-yl)piperidine-1-sulfonyl]-1H-pyrazolo[3,4-b]pyridine-6-carboxamide]",% Activation,ΔF508-CFTR [1]; [3],232.5%
same,EC50,ΔF508-CFTR [1]; [4],81.1 nM
same,% Activation,ΔF508-CFTR [2]; [5],50.87%
same,EC50,ΔF508-CFTR [2]; [6],73.5 nM
"CN1CCN(C(=O)[C@@H]2CCCN2S(=O)(=O)NC(=O)c2cc(OCC3CCOCC3)c3c(C4CCC4)nn(-c4ccccc4)c3n2)CC1 [Compound 352, 3-cyclobutyl-N-[(2S)-2-(4-methylpiperazine-1-carbonyl)pyrrolidine-1-sulfonyl]-4-[(oxan-4-yl)methoxy]-1-phenyl-1H-pyrazolo[3,4-b]pyridine-6-carboxamide]",% Activation,ΔF508-CFTR [1]; [3],158.4%
same,EC50,ΔF508-CFTR [1]; [4],2780 nM
same,% Activation,ΔF508-CFTR [2]; [5],27.44%
same,EC50,ΔF508-CFTR [2]; [6],5000 nM
"O=C(NS(=O)(=O)N1CCC(N2CCCCC2)CC1)c1cc(OCC2CCOCC2)c2c(C3CCC3)nn(-c3ccccc3)c2n1 [Compound 353, N-([1,4'-bipiperidine]-1'-sulfonyl)-3-cyclobutyl-4-[(oxan-4-yl)methoxy]-1-phenyl-1H-pyrazolo[3,4-b]pyridine-6-carboxamide]",% Activation,ΔF508-CFTR [1]; [3],193.45%
same,EC50,ΔF508-CFTR [1]; [4],346 nM
same,% Activation,ΔF508-CFTR [2]; [5],56.22%
same,EC50,ΔF508-CFTR [2]; [6],87.9 nM
"CCCN(C)S(=O)(=O)NC(=O)c1cc(OCC2CCOCC2)c2c(C3CCC3)nn(-c3ccccc3)c2n1 [Compound 354, 3-cyclobutyl-N-[methyl(propyl)sulfamoyl]-4-[(oxan-4-yl)methoxy]-1-phenyl-1H-pyrazolo[3,4-b]pyridine-6-carboxamide]",% Activation,ΔF508-CFTR [1]; [3],351%
same,EC50,ΔF508-CFTR [1]; [4],232 nM
same,% Activation,ΔF508-CFTR [2]; [5],113.7%
same,EC50,ΔF508-CFTR [2]; [6],123 nM
"CCCN(CC)S(=O)(=O)NC(=O)c1cc(OCC2CCOCC2)c2c(C3CCC3)nn(-c3ccccc3)c2n1 [Compound 355, 3-cyclobutyl-N-[ethyl(propyl)sulfamoyl]-4-[(oxan-4-yl)methoxy]-1-phenyl-1H-pyrazolo[3,4-b]pyridine-6-carboxamide]",% Activation,ΔF508-CFTR [1]; [3],278.4%
same,EC50,ΔF508-CFTR [1]; [4],377 nM
same,% Activation,ΔF508-CFTR [2]; [5],102.4%
same,EC50,ΔF508-CFTR [2]; [6],161 nM
"CCOC(=O)N1CCC(NS(=O)(=O)NC(=O)c2cc(OCC3CCOCC3)c3c(C4CCC4)nn(-c4ccccc4)c3n2)CC1 [Compound 356, ethyl 4-[({3-cyclobutyl-4-[(oxan-4-yl)methoxy]-1-phenyl-1H-pyrazolo[3,4-b]pyridine-6-carbonyl}sulfamoyl)amino]piperidine-1-carboxylate]",% Activation,ΔF508-CFTR [1]; [3],372%
same,EC50,ΔF508-CFTR [1]; [4],48.3 nM
same,% Activation,ΔF508-CFTR [2]; [5],188.25%
same,EC50,ΔF508-CFTR [2]; [6],105 nM
"CC(=O)N1CCCN(S(=O)(=O)NC(=O)c2cc(OCC3CCOCC3)c3c(C4CCC4)nn(-c4ccccc4)c3n2)CC1 [Compound 357, N-(4-acetyl-1,4-diazepane-1-sulfonyl)-3-cyclobutyl-4-[(oxan-4-yl)methoxy]-1-phenyl-1H-pyrazolo[3,4-b]pyridine-6-carboxamide]",% Activation,ΔF508-CFTR [1]; [3],229.8%
same,EC50,ΔF508-CFTR [1]; [4],130 nM
same,% Activation,ΔF508-CFTR [2]; [5],72.83%
same,EC50,ΔF508-CFTR [2]; [6],115 nM
"COCC1CCN(c2cc(C(=O)NS(=O)(=O)CCO)nc3c2c(C2CCC2)nn3-c2ccccc2)CC1 [Compound 366, 3-cyclobutyl-N-(2-hydroxyethanesulfonyl)-4-[4-(methoxymethyl)piperidin-1-yl]-1-phenyl-1H-pyrazolo[3,4-b]pyridine-6-carboxamide]",% Activation,ΔF508-CFTR [1]; [3],443.7%
same,EC50,ΔF508-CFTR [1]; [4],82.7 nM
same,% Activation,ΔF508-CFTR [2]; [5],264%
same,EC50,ΔF508-CFTR [2]; [6],298 nM
"COCC1CCN(c2cc(C(=O)NS(=O)(=O)CCCO)nc3c2c(C2CCC2)nn3-c2ccccc2)CC1 [Compound 367, 3-cyclobutyl-N-(3-hydroxypropane-1-sulfonyl)-4-[4-(methoxymethyl)piperidin-1-yl]-1-phenyl-1H-pyrazolo[3,4-b]pyridine-6-carboxamide]",% Activation,ΔF508-CFTR [1]; [3],526.17%
same,EC50,ΔF508-CFTR [1]; [4],81.6 nM
same,% Activation,ΔF508-CFTR [2]; [5],364.5%
same,EC50,ΔF508-CFTR [2]; [6],311 nM
"COCC1CCN(c2cc(C(=O)NS(=O)(=O)C3CCNCC3)nc3c2c(C2CCC2)nn3-c2ccccc2)CC1 [Compound 368, 3-cyclobutyl-4-[4-(methoxymethyl)piperidin-1-yl]-1-phenyl-N-(piperidine-4-sulfonyl)-1H-pyrazolo[3,4-b]pyridine-6-carboxamide]",% Activation,ΔF508-CFTR [1]; [3],350.23%
same,EC50,ΔF508-CFTR [1]; [4],361 nM
same,% Activation,ΔF508-CFTR [2]; [5],185%
same,EC50,ΔF508-CFTR [2]; [6],1360 nM
"CS(=O)(=O)NC(=O)c1cc(N2CCS(=O)(=O)CC2)c2c(C3CCC3)nn(-c3ccccc3)c2n1 [Compound 371, 3-cyclobutyl-4-(1,1-dioxo-1λ^6,4-thiazinan-4-yl)-N-(methanesulfonyl)-1-phenyl-1H-pyrazolo[3,4-b]pyridine-6-carboxamide]",% Activation,ΔF508-CFTR [1]; [3],271.9%
same,EC50,ΔF508-CFTR [1]; [4],1930 nM
same,% Activation,ΔF508-CFTR [2]; [5],121.3%
same,EC50,ΔF508-CFTR [2]; [6],2740 nM
"COCC1CCN(c2cc(C(=O)NS(=O)(=O)CCNC(=O)OCc3ccccc3)nc3c2c(C2CCC2)nn3-c2ccccc2)CC1 [Compound 373, benzyl [2-({3-cyclobutyl-4-[4-(methoxymethyl)piperidin-1-yl]-1-phenyl-1H-pyrazolo[3,4-b]pyridine-6-carbonyl}sulfamoyl)ethyl]carbamate]",% Activation,ΔF508-CFTR [1]; [3],580.5%
same,EC50,ΔF508-CFTR [1]; [4],85.8 nM
same,% Activation,ΔF508-CFTR [2]; [5],368.2%
same,EC50,ΔF508-CFTR [2]; [6],73 nM
"COCC1CCN(c2cc(C(=O)NS(=O)(=O)C3(C)CC3)nc3c2c(C2CCC2)nn3-c2ccccc2)CC1 [Compound 374, 3-cyclobutyl-4-[4-(methoxymethyl)piperidin-1-yl]-N-(1-methylcyclopropane-1-sulfonyl)-1-phenyl-1H-pyrazolo[3,4-b]pyridine-6-carboxamide]",% Activation,ΔF508-CFTR [1]; [3],426.05%
same,EC50,ΔF508-CFTR [1]; [4],196 nM
same,% Activation,ΔF508-CFTR [2]; [5],240.7%
same,EC50,ΔF508-CFTR [2]; [6],254 nM
"COCC1CCN(c2cc(C(=O)NS(=O)(=O)CC(C)C)nc3c2c(C2CCC2)nn3-c2ccccc2)CC1 [Compound 375, 3-cyclobutyl-4-[4-(methoxymethyl)piperidin-1-yl]-N-(2-methylpropane-1-sulfonyl)-1-phenyl-1H-pyrazolo[3,4-b]pyridine-6-carboxamide]",% Activation,ΔF508-CFTR [1]; [3],546.75%
same,EC50,ΔF508-CFTR [1]; [4],241 nM
same,% Activation,ΔF508-CFTR [2]; [5],321.6%
same,EC50,ΔF508-CFTR [2]; [6],571 nM
